Assay [1] relates to cotton pellet-induced granuloma. Nature of the assay: Cotton pellet-induced granuloma assay (chronic inflammation model). The settings on record: oral 5 mg/kg daily; pellets excised on 8th day; vs diclofenac sodium and celecoxib.
For a further assay, the system named is IL-1β. Nature of the assay: IL-1β protein expression by Western blotting. The assay is classed as cell-based, human. Conditions: 100 μM compound; PMA 24 h then LPS 72 h; normalised to GAPDH. Here is the method:
THP-1 monocytes were exposed to 100 μM of the test compounds, activated with 25 nM PMA for 24 h followed by 100 ng/ml LPS for 72 h. At the end of the incubation period, cells were harvested, proteins were extracted and SDS-PAGE electrophoresis, blotting, and antibody probing were conducted as described previously. Primary rabbit polyclonal antibodies to IL-1β, procaspase-3, and GAPDH were obtained from Abcam (Cambridge, UK). Clarity Western ECL substrate (BioRad, Hercules, CA, USA) was used to obtain a chemiluminescence signal captured by a Chemidoc imaging system (BioRad, Hercules, CA, USA). Band density was estimated using ImageJ software (National Institutes of Health, Bethesda, MD) and normalised to the GAPDH band density as a loading control.
A general note: In western blotting, separated proteins are transferred to a membrane and probed.

In the next assay the target is T1, human recombinant COX-2 (Homo sapiens, UniProt P35354).
T1 construct: purchased Cayman Chemicals Inc. 560131
T1 sequence (P35354 18-604): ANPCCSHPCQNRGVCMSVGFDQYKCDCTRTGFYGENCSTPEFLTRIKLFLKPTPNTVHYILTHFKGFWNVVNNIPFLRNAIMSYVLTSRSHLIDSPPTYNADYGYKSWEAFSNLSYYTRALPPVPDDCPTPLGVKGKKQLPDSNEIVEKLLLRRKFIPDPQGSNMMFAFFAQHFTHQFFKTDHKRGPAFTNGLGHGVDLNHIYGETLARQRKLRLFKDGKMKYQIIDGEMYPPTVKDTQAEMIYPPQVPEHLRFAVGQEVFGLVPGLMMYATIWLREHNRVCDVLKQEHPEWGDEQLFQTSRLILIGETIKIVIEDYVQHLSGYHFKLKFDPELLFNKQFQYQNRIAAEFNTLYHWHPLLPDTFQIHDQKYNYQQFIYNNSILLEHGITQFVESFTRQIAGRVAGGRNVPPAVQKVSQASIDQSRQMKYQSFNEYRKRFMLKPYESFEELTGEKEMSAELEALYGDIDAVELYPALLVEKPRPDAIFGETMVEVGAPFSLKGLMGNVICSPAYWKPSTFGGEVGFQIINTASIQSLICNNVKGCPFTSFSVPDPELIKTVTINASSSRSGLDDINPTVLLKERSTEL
Nature of the assay: In vitro COX-2 inhibition assay (colorimetric COX inhibitor screening kit, Cayman). The assay is classed as biochemical. On the procedure: Both assays were carried out in compliance with the manufacturer’s instructions and in accordance to prior studies[29]^,[33].
IC50 values (μM) and selectivity indices (SI) were calculated.

Turning to `COc1ccc(-c2nn(-c3ccccc3)cc2/C=C2\SC(N3CCCCC3)=NC2=O)cc1` [Compound 7, (Z)-5-((3-(4-methoxyphenyl)-1-phenyl-1H-pyrazol-4-yl)methylene)-2-(piperidin-1-yl)thiazol-4(5H)-one], the “Inhibition of cotton pellet granuloma weight (in words)” value in assay [1] is on record as “only superior to celecoxib”. Moreover, the “IL-1β expression in PMA/LPS-challenged THP-1” value with IL-1β was “attenuating IL-1β production”. The “SI (COX-1/ COX-2)” value at human recombinant COX-2 (IC50 (COX-1)/IC50 (COX-2)) is 114. The IC50 at human recombinant COX-2 (mean of three determinations) came out at 90 nM.

One may read the IC50 as the concentration at which inhibition is half-maximal.

Values taken from publication PMC7901699, “Challenging inflammatory process at molecular, cellular and in vivo levels via some new pyrazolyl thiazolones” (Journal of Enzyme Inhibition and Medicinal Chemistry, 2021).
